Where a name gives a salt, the structure may show the parent alone.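 Each compound was tested at five concentrations against cells in 96-well plates for 48 hours. GI50 is the concentration that inhibits growth by half.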 Calls of active or inactive are those of the source. Rule as the data show it: active = GI50 up to about 1.1 µM and inactive = higher.
Assays:
Test in all cases: inhibition of tumour cell growth, NCI panel, 48 h
KM-20L2 = test system: KM-20L2
DMS-114 = test system: DMS-114
DLD-1 = test system: DLD-1
SNB-78 = test system: SNB-78
XF498 = test system: XF498
DMS-273 = test system: DMS-273
HOP-18 = test system: HOP-18
M19-MEL = test system: M19-MEL
RXF 631 = test system: RXF 631

Compound | GI50 (KM-20L2) | GI50 (DMS-114) | GI50 (DLD-1) | GI50 (SNB-78) | GI50 (XF498) | GI50 (DMS-273) | GI50 (HOP-18) | GI50 (M19-MEL) | GI50 (RXF 631)
Clc1ccc2c(c1)C1C(CO2)C(c2ccccc2)=NN1c1ccccc1 (stereo not given) | 79.6 µM (inactive) | 24.6 µM (inactive) | 35.1 µM (inactive) | 29.9 µM (inactive) | 14.9 µM (inactive) | 28.7 µM (inactive) | 1.07 µM (active) | 26.5 µM (inactive) | –
C=CCCC(O)c1cc(C)c(O)c(C)c1 (stereo not given) | > 100 µM (inactive) | > 100 µM (inactive) | – | > 100 µM (inactive) | – | – | > 100 µM (inactive) | > 100 µM (inactive) | –
CCCCCCCCCCCCCCCC(=O)OCC1OC(n2cc(F)c(=O)[nH]c2=O)C(NC(=O)OCc2ccccc2)C(O)C1O (stereo not given) | 22.3 µM (inactive) | 14 µM (inactive) | – | 20.6 µM (inactive) | 16.3 µM (inactive) | 16.8 µM (inactive) | 16.8 µM (inactive) | 20.3 µM (inactive) | 18.3 µM (inactive)
NCCSSCCN [CYSTAMINE HYDROCHLORIDE] | > 100 µM (inactive) | > 100 µM (inactive) | > 100 µM (inactive) | > 100 µM (inactive) | > 100 µM (inactive) | > 100 µM (inactive) | > 100 µM (inactive) | > 100 µM (inactive) | > 100 µM (inactive)
CCOC(=O)C1(C)CCC(C(=O)OC)C1=O (stereo not given) | > 100 µM (inactive) | 19.8 µM (inactive) | 57.4 µM (inactive) | > 100 µM (inactive) | > 100 µM (inactive) | – | > 100 µM (inactive) | 73.3 µM (inactive) | –
O=C1C2Cc3ccccc3CN2C(=O)N1CCN1CCCC1 (stereo not given) | > 100 µM (inactive) | > 100 µM (inactive) | > 100 µM (inactive) | – | > 100 µM (inactive) | > 100 µM (inactive) | – | > 100 µM (inactive) | > 100 µM (inactive)
CN1/C(=N\c2ccccc2)S/C1=N/c1ccccc1 | – | 23.6 µM (inactive) | 23.4 µM (inactive) | > 100 µM (inactive) | 9.57 µM (inactive) | 87.3 µM (inactive) | 69 µM (inactive) | 21.8 µM (inactive) | –
C[C@]12CC=CC(=O)[C@@]1(C)CCC(=O)C2 | – | > 100 µM (inactive) | > 100 µM (inactive) | > 100 µM (inactive) | 75.7 µM (inactive) | > 100 µM (inactive) | – | > 100 µM (inactive) | > 100 µM (inactive)
C=C1C2C[C@@H]3OC4CC5O[C@]6(CC5OC4C(C)C3OC(=O)CC3CC[C@@H]4OC5C7OC8C[C@](CCC9CC(=C)[C@H](CCC(C[C@H]1C)O2)O9)(OC7C4O3)O[C@@H]85)C[C@@H]1O[C@@]2(CC(C)[C@@H]3OC(CC(=O)CCO)C(O)C[C@@H]3O2)CC(C)[C@@H]1O6 (stereo not given in full) | < 0.001 µM (active) | – | < 0.001 µM (active) | 0.00157 µM (active) | < 0.001 µM (active) | < 0.001 µM (active) | – | – | –
O=C(CCC(=O)Nc1ccc(Cl)c(Cl)c1)CC(=O)c1ccc(F)cc1 | > 100 µM (inactive) | > 100 µM (inactive) | > 100 µM (inactive) | > 100 µM (inactive) | – | > 100 µM (inactive) | > 100 µM (inactive) | > 100 µM (inactive) | > 100 µM (inactive)
O=C1CCC(O)=C1O | > 100 µM (inactive) | > 100 µM (inactive) | > 100 µM (inactive) | – | > 100 µM (inactive) | > 100 µM (inactive) | > 100 µM (inactive) | > 100 µM (inactive) | > 100 µM (inactive)
O=C1CCC(=O)N1Cc1ccccc1/N=[N+](\[O-])c1ccccc1CN1C(=O)CCC1=O | > 100 µM (inactive) | > 100 µM (inactive) | – | > 100 µM (inactive) | > 100 µM (inactive) | > 100 µM (inactive) | – | > 100 µM (inactive) | –

Source: ChEMBL document CHEMBL1201862, “PubChem BioAssay data set” (2004)
